Among the data in US20110250243A1, “NANOPARTICLE COMPOSITIONS” (priority 2008, published 2011) are Encapsulation efficiency values, retold here.

This series can be described thus: Encapsulation of coumarin-6 in PEC nanoparticles by solvent displacement. Particulars: solvent displacement method. The format is physicochemical. On the procedure: Coumarin-6 is used (absorption: 485 nm, emission: 505-525 nm) as it allows to optically detect a potential phagocytosis process and furthermore, is a suitable model for a lipophilic agent. Due to its lipophilic characteristics and low water solubility, coumarin-6 can suitably be processed by the solvent displacement method, in order to achieve a high packaging rate. The encapsulation efficiency is very high and lies close to 100%. The preparation of the loaded nanoparticles is also performed using the modified solvent-displacement method as described in example 2. Coumarin-6 is used in a stock solution of 50 μg/ml in acetonitrile (the stock solution is stored in the refrigerator and protected by light e.g. by using aluminium foil) and the PEC 95 and 99 polymers as a 10 mg/ml stock solution in acetonitrile. All samples are set up in triplicate. For loading the nanoparticles the required amounts of PEC stock solution and coumarin-6 stock solution are mixed, filled up with acetonitrile up to 1.5 ml and vortexed (see table 2). This solution is then injected into the PVA solution according to the usual schema (see above).

The molecule `CCN(CC)c1ccc2cc(-c3nc4ccccc4s3)c(=O)oc2c1` [coumarin-6] yielded an Encapsulation efficiency of approximately 100%.
